Reference: patent US11427548B2 (Arvinas Operations, Inc., priority 2015, dated 2022)
Like-named read-outs stand apart in the source and are kept apart here.

Molecular target: T1, Androgen Receptor (Homo sapiens, UniProt P10275)
T1 construct: endogenous in cells; host or cells: VCaP cells
T1 sequence (P10275 1-920): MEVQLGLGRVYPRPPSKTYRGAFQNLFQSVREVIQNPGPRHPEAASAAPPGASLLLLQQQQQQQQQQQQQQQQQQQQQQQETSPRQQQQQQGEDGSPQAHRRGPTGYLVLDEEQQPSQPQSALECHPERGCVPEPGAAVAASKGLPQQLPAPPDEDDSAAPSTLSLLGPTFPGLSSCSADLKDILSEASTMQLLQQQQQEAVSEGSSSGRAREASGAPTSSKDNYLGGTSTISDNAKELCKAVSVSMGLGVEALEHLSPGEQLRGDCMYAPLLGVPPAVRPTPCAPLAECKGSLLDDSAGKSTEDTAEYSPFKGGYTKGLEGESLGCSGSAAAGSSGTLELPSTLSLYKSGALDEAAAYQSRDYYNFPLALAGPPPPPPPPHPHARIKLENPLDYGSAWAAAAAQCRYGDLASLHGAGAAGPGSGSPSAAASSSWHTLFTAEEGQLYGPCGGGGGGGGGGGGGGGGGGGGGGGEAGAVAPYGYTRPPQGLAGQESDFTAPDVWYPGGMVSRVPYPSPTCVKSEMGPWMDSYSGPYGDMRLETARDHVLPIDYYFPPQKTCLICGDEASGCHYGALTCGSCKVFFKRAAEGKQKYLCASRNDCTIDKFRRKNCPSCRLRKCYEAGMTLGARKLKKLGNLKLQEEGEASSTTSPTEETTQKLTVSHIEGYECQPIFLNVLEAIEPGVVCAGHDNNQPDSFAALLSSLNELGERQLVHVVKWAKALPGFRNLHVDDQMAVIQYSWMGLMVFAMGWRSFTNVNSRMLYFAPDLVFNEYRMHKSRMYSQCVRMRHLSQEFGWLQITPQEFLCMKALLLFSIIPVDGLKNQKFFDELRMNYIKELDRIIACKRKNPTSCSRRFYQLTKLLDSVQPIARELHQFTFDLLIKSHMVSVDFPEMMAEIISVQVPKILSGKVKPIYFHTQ
Test: Androgen Receptor ELISA assay (PathScan AR ELISA) in VCaP cells: AR degradation, Dmax and DC50
Type: cell-based
Summary of the method: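 VCaP cells, 30,000/well, grown ≥3 days in phenol red-free RPMI with 5% charcoal-stripped FBS; compound added in 0.1% DMSO with 0.1 nM R1881, 7 half-log doses, 24 h. Lysate AR quantified by PathScan sandwich ELISA, HRP/TMB read at 450 nm, giving DC50 and Dmax.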

[1] = VCaP cells; Table 36; read-out: VCaP DC50
[2] = VCaP, VCaP cells; Table 36; read-out: VCaP Dmax (%)
[3] = read-out: VCaP DC50; VCaP cells; Table 35
[4] = VCaP cells; Table 35; read-out: VCaP DC50
[5] = VCaP, VCaP cells; Table 35; read-out: VCaP Dmax (%)
[6] = read-out: VCaP DC50; VCaP cells; Table 36

Structure (SMILES): Cc1ncsc1-c1ccc(CNC(=O)[C@@H]2C[C@@H](O)CN2C(=O)[C@@H](C(C)C)N2Cc3ccc(N4CCN(CCCc5ccc(C(=O)N[C@H]6C(C)(C)[C@H](Oc7ccc(C#N)c(Cl)c7)C6(C)C)cc5)CC4)cc3C2=O)cc1 [Example 773, (2S,4R)-1-((R)-2-(6-(4-(3-(4-(((1r,3r)-3-(3-chloro-4-cyanophenoxy)-2,2,4,4-tetramethylcyclobutyl)carbamoyl)phenyl)propyl)piperazin-1-yl)-1-oxoisoindolin-2-yl)-3-methylbutanoyl)-4-hydroxy-N-(4-(4-methylthiazol-5-yl)benzyl)pyrrolidine-2-carboxamide]
- DC50 [1]: > 501 nM
- Dmax [2]: < 25%

Structure (SMILES): Cc1ncsc1-c1ccc([C@H](C)NC(=O)[C@@H]2C[C@@H](O)CN2C(=O)[C@@H](NC(=O)COCCCCOc2ccc(-c3ccc(N4C(=S)N(c5ccc(C#N)c(C(F)(F)F)c5)C(=O)C4(C)C)c(F)c3)cc2)C(C)(C)C)cc1 [Example 137, (2S,4R)-1-[(2S)-2-(2-{4-[4-(4-{3-[4-cyano-3-(trifluoromethyl)phenyl]-5,5-dimethyl-4-oxo-2-sulfanylideneimidazolidin-1-yl}-3-fluorophenyl)phenoxy]butoxy}acetamido)-3,3-dimethylbutanoyl]-4-hydroxy-N-[(1S)-1-[4-(4-methyl-1,3-thiazol-5-yl)phenyl]ethyl]pyrrolidine-2-carboxamide]
- Dmax (VCaP, read-out: VCaP Dmax (%)): > 71%
- DC50 (read-out: VCaP DC50; concentration that caused 50% Androgen Receptor degradation, VCaP cells (Table 32)): < 50 nM

Structure (SMILES): Cc1ncsc1-c1ccc([C@H](C)NC(=O)[C@@H]2C[C@@H](O)CN2C(=O)[C@@H](C(C)C)n2cc(OCCCOCCCCCOc3ccc(N4C(=S)N(c5ccc(C#N)c(C(F)(F)F)c5)C(=O)C4(C)C)cc3)cn2)cc1 [Example 434]
- DC50 [3]: > 501 nM

Structure (SMILES): CC(C)(C)[C@H](NC(=O)COCCCCCOc1ccc(C(=O)N[C@H]2C(C)(C)[C@H](Oc3ccc(C#N)c(Cl)c3)C2(C)C)cc1)C(=O)N1C[C@H](O)C[C@H]1C(=O)O [Example 509]
- DC50 [4]: 51 to 500 nM
- Dmax [5]: 26 to 50%

Structure (SMILES): Cc1ncsc1-c1ccc([C@H](C)NC(=O)[C@@H]2C[C@@H](O)CN2C(=O)[C@@H](C(C)C)n2cc(OCCCOCCCCCOc3ccc(N4C(=S)N(c5ccc(C#N)c(C(F)(F)F)c5)C(=O)C4(C)C)cc3)cn2)nc1 [Example 427]
- Dmax (VCaP, read-out: VCaP Dmax (%)): < 25%
- DC50 [3]: > 501 nM

Structure (SMILES): Cc1ncsc1-c1ccc([C@H](C)NC(=O)C2C[C@@H](O)CN2C(=O)[C@@H](NC(=O)COCCN2C3CCC2CN(c2ccc(C(=O)NC4C(C)(C)C(Oc5ccc(C#N)c(Cl)c5)C4(C)C)cn2)C3)C(C)(C)C)cc1 (stereo partly drawn) [Example 787, N-((1r,3r)-3-(3-chloro-4-cyanophenoxy)-2,2,4,4-tetramethylcyclobutyl)-6-(8-(2-(2-(((2S)-1-((4R)-4-hydroxy-2-(((S)-1-(4-(4-methylthiazol-5-yl)phenyl)ethyl)carbamoyl)pyrrolidin-1-yl)-3,3-dimethyl-1-oxobutan-2-yl)amino)-2-oxoethoxy)ethyl)-3,8-diazabicyclo[3.2.1]octan-3-yl)nicotinamide]
- VCaP Dmax (%) (VCaP cells; Table 36): ++++ (71% ≤ Dmax)
- DC50 [1]: < 50 nM

Structure (SMILES): Cc1ncsc1-c1ccc([C@H](C)NC(=O)[C@@H]2C[C@@H](O)CN2C(=O)[C@@H](NC(=O)COc2ccc(OC3CCN(c4ccc(N5C(=S)N(c6ccc(C#N)c(C(F)(F)F)c6)C(=O)C5(C)C)cc4)CC3)nc2)C(C)(C)C)cc1 [Example 430]
- Dmax (VCaP, read-out: VCaP Dmax (%)): < 25%
- DC50 [3]: > 501 nM

Structure (SMILES): Cc1ncsc1-c1ccc(CNC(=O)[C@@H]2C[C@@H](O)CN2C(=O)[C@H](C(C)C)n2cc(OC3CCN(c4ccc(-c5ccc(N6C(=S)N(c7ccc(C#N)c(C(F)(F)F)c7)C(=O)C6(C)C)cc5)cn4)CC3)cn2)cc1 [Example 598, 1-(2-(4-((1-(5-(4-(3-(4-cyano-3-(trifluoromethyl)phenyl)-5,5-dimethyl-4-oxo-2-thioxoimidazolidin-1-yl)phenyl)pyridin-2-yl)piperidin-4-yl)oxy)-1H-pyrazol-1-yl)-3-mehtylbutanoyl)-4-hydroxy-N-(4-(4-methylthiazol-5-yl)benzyl)pyrrolidine-2-carboxamide]
- Dmax (VCaP, read-out: VCaP Dmax (%)): 26 to 50%
- DC50 [6]: > 501 nM

Structure (SMILES): Cc1ncsc1-c1ccc([C@H](C)NC(=O)[C@@H]2C[C@@H](O)CN2C(=O)[C@@H](NC(=O)CN2C[C@H](C)N(CCCc3ccc(C(=O)N[C@H]4C(C)(C)[C@H](Oc5ccc(C#N)c(Cl)c5)C4(C)C)cc3)C[C@H]2C)C(C)(C)C)cc1 [Example 816, (2S,4R)-1-((S)-2-(2-((2R,5S)-4-(3-(4-(((1r, 3S)-3-(3-chloro-4-cyanophenoxy)-2,2,4,4-tetramethylcyclobutyl)carbamoyl)phenyl)propyl)-2,5-dimethylpiperazin-1-yl)acetamido)-3,3-dimethylbutanoyl)-4-hydroxy-N-((S)-1-(4-(4-methylthiazol-5-yl)phenyl)ethyl) pyrrolidine-2-carboxamide]
- DC50 [1]: < 50 nM
- Dmax (VCaP, read-out: VCaP Dmax (%)): > 71%

Structure (SMILES): Cc1ncsc1-c1ccc([C@H](C)NC(=O)[C@@H]2C[C@@H](O)CN2C(=O)[C@@H](NC(=O)COCCCCCNc2ccc(C(=O)N[C@H]3C(C)(C)[C@H](Oc4ccc(C#N)c(Cl)c4)C3(C)C)cc2F)C(C)(C)C)cc1 [Example 656, (2S,4R)-1-((S)-2-(2-((5-((4-(((1r,3r)-3-(3-chloro-4-cyanophenoxy)-2,2,4,4-tetramethylcyclobutyl)carbamoyl)-2-fluorophenyl)amino)pentyl)oxy)acetamido)-3,3-dimethylbutanoyl)-4-hydroxy-N-((S)-1-(4-(4-methylthiazol-5-yl)phenyl)ethyl)pyrrolidine-2-carboxamide]
- DC50 [1]: < 50 nM
- Dmax (VCaP, read-out: VCaP Dmax (%), VCaP cells; Table 36): > 71%

Structure (SMILES): Cc1ncsc1-c1ccc([C@H](C)NC(=O)[C@@H]2C[C@@H](O)CN2C(=O)[C@@H](NC(=O)COCCN2CCN(c3ccc(C(=O)N[C@H]4C(C)(C)[C@H](Oc5ccc(C#N)c(Cl)c5)C4(C)C)cc3)CC2)C(C)(C)C)cc1 [Example 438]
- DC50 [4]: < 50 nM
- Dmax [5]: > 71%

Structure (SMILES): C[C@H](NC(=O)[C@@H]1C[C@@H](O)CN1C(=O)[C@@H](NC(=O)COCCCCCNc1ccc(C(=O)N[C@H]2C(C)(C)[C@H](Oc3ccc(C#N)c(Cl)c3)C2(C)C)cc1)C(C)(C)C)c1ccc(C#N)cc1 [Example 541]
- DC50 [4]: < 50 nM
- Dmax [5]: > 71%

Structure (SMILES): Cc1ncsc1-c1ccc([C@H](C)NC(=O)[C@@H]2C[C@@H](O)CN2C(=O)[C@@H](NC(=O)COc2ccc(OC3CCN(c4ccc(N5C(=S)N(c6ccc(C#N)c(C(F)(F)F)c6)C(=O)C5(C)C)cn4)CC3)nc2)C(C)(C)C)cc1 [Example 429]
- Dmax (VCaP, read-out: VCaP Dmax (%)): 26 to 50%
- DC50 [3]: > 501 nM

Structure (SMILES): Cc1nc(O[C@H]2C(C)(C)[C@H](NC(=O)c3ccc(N4CCN(CCOCC(=O)N[C@H](C(=O)N5C[C@H](O)C[C@H]5C(=O)N[C@@H](C)c5ccc(-c6scnc6C)cc5)C(C)(C)C)CC4)nc3)C2(C)C)ccc1C#N [Example 682, N-((1r,3r)-3-((5-cyano-6-methylpyridin-2-yl)oxy)-2,2,4,4-tetramethylcyclobutyl)-6-(4-(2-(2-(((S)-1-((2S,4R)-4-hydroxy-2-(((S)-1-(4-(4-methylthiazol-5-yl)phenyl)ethyl)carbam-oyl)pyrrolidin-1-yl)-3,3-dimethyl-1-oxobutan-2-yl)amino)-2-oxoethoxy)ethyl)pipera-zin-1-yl)nicotinamdie]
- DC50 [1]: < 50 nM
- Dmax [2]: > 71%

Structure (SMILES): Cc1ncsc1-c1ccc([C@H](C)NC(=O)[C@@H]2C[C@@H](O)CN2C(=O)[C@@H](NC(=O)CN2CCO[C@H](CN3CCO[C@@H](COc4ccc(N5C(=S)N(c6ccc(C#N)c(C(F)(F)F)c6)C(=O)C5(C)C)cc4)C3)C2)C(C)(C)C)cc1 [Example 622, (2S,4R)-1-((S)-2-(2-((R)-2-(((R)-2-((4-(3-(4-cyano-3-(trifluoromethyl)phenyl)-5,5-dimethyl-4-oxo-2-thioxoimidazolidin-1-yl)phenoxy)methyl)mor-pholino)methyl)mor-pholino)acetamido)-3,3-dimethylbutanoyl)-4-hydroxy-N-((S)-1-(4-(4-methylthiazol-5-yl)phenyl)ethyl)pyrrolidine-2-carboxamide]
- Dmax (VCaP, read-out: VCaP Dmax (%)): < 25%
- DC50 [6]: > 501 nM
